C(=Cc1ccc(-c2nc3ccccc3o2)cc1)c1ccc(-c2nc3ccccc3o2)cc1
solubility (mole fraction)
Conditions	323.15 K	338.15 K	353.15 K	368.15 K	383.15 K
in DMF	3.02e-06	7.12e-06	1.04e-05	1.57e-05	2.63e-05
in NMP	3.18e-06	7.96e-06	1.37e-05	2.44e-05	3.99e-05
in chlorobenzene	8.89e-06	2.1e-05	3.65e-05	4.9e-05	5.59e-05
in water	1.3e-07	3.39e-07	5.56e-07	6.6e-07	–

— BigSolDB 2.1
